Activity calls are given as the source filed them.
Tests used:
cells [1] = type: functional, cell-based
[2] = target: T1, Nuclear receptor subfamily 0 group B member 1 (Homo sapiens, UniProt P51843); type: functional, cell-based;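 note: HEK293T cells transfected with SF-1 and DAX-1 plus StAR promoter luciferase reporter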
T1 sequence (P51843 whole entry): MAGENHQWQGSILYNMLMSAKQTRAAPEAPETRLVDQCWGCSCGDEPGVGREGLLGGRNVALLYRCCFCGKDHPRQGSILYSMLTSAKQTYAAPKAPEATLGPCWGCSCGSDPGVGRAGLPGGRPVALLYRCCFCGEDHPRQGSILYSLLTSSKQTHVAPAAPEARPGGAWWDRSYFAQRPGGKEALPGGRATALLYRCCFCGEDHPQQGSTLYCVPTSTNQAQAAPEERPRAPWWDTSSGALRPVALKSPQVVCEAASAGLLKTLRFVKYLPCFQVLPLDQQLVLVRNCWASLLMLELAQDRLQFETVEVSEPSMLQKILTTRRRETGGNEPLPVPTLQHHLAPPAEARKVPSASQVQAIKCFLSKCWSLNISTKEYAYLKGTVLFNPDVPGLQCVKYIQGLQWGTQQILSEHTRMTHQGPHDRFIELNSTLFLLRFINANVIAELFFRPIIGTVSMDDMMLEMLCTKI

[3] = Luminescence Cell-Based Dose Response HTS to Identify Inhibitors of 5'UTR Stem-Loop Driven Prion Protein mRNA Translation in H4 Neuroglioblastoma Cells. [Related pubchem assays: 1827 (Project Summary), 1813 (Primary HTS)]; type: functional
[4] = inhibitors of SNCA 5'UTR-driven reporter translation, confirmation, H4 neuroglioma cells, luminescence (AID 1988); type: functional, cell-based
[5] = target: Luciferin 4-monooxygenase (Photinus pyralis, UniProt P08659); experiment: firefly luciferase enzyme inhibitors, dose response, biochemical, luminescence (AID 1891)
[6] = Luminescence Cell-Based Dose Confirmation HTS to Identify Inhibitors of Platelet Dense Granule Release. [Related pubchem assays: 1663 (Primary HTS), 1678 (Summary of Project)]; type: functional
Protein skinhead-1 = target: T2, Protein skinhead-1 (Caenorhabditis elegans, UniProt P34707); type: functional
T2 sequence (P34707 whole entry): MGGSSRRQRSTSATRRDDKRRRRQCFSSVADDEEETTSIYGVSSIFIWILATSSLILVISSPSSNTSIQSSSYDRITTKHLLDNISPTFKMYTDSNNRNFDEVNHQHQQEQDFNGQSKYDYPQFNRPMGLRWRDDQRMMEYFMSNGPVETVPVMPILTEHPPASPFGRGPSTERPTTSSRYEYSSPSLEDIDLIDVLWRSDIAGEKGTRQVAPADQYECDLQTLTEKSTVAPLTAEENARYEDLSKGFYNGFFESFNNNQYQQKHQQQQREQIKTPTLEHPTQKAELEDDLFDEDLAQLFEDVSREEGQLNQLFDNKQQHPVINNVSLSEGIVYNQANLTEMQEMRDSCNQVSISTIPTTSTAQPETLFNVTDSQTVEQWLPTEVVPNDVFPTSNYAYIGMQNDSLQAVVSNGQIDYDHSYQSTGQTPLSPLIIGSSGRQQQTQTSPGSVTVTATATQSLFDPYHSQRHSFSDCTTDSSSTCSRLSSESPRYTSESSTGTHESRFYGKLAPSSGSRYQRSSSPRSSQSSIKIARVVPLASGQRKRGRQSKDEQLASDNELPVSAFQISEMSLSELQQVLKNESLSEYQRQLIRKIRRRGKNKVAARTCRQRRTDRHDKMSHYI

cells [7] = type: functional, cell-based; remark: listed apart in the source
[8] = inhibitors of intracellular T. cruzi replication, confirmation, NIH3T3 host cells, beta-gal luminescence (AID 2044); type: functional, cell-based;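 note: intracellular parasites grown in NIH/3T3 mouse fibroblasts as host cells; luminescent beta-galactosidase reporter signal from transgenic T. cruzi replicating inside host cells; inhibitors lower the luminescence signal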
cells [9] = type: functional, cell-based; remark: listed apart in the source
[10] = cytotoxicity toward NIH3T3 fibroblasts, dose response, counter-screen, cell-based, ATP luminescence, mouse fibroblasts (AID 2010); type: functional;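 note: cells exposed to compound for about 90 hours before reading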
[11] = target: T3, Short transient receptor potential channel 4 (Mus musculus, UniProt Q9QUQ5); experiment: mouse TRPC4 channel inhibitors, dose response, cell-based, HEK293 TRPC4/mu-opioid, Fluo-4 calcium (AID 434942); type: functional;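 note: potency of inhibitors blocking the TRPC4 calcium response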
T3 sequence (Q9QUQ5 whole entry): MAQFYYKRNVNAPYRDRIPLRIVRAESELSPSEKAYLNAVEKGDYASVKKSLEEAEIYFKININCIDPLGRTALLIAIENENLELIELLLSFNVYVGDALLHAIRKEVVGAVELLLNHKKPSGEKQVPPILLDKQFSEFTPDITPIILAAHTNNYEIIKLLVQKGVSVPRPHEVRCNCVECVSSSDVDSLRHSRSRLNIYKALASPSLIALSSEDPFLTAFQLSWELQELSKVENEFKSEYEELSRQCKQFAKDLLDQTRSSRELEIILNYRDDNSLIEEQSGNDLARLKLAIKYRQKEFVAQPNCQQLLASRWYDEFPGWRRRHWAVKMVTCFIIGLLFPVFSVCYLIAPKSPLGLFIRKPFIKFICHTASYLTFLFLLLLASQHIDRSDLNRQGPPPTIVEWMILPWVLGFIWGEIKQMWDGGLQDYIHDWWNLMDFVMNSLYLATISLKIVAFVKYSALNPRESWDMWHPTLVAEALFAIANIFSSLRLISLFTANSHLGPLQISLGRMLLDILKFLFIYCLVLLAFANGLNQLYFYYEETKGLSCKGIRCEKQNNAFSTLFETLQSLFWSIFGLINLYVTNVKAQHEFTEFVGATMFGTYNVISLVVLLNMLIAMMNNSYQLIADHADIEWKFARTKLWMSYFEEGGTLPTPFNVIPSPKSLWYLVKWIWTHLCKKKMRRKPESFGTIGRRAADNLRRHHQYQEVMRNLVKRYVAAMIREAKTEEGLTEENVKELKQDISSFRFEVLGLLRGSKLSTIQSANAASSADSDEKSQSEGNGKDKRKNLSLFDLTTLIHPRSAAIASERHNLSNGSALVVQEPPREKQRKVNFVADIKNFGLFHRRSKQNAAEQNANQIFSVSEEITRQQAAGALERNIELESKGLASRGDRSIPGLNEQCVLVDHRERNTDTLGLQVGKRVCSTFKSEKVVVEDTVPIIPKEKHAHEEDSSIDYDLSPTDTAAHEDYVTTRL

INS1 = experiment: beta cell apoptosis inhibitors, cytokine rescue, dose response, luminescence, retest (AID 449756); type: functional, cell-based; conditions: Rattus norvegicus, INS1;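 note: cell death triggered by IL-1 beta plus TNF-alpha plus IFN-gamma mixture; protective hits raise ATP signal compared with cytokine alone wells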
[12] = DNA binding of candidate compounds, dose response, artefact control for RAD54 inhibitor project, biochemical, fluorescence polarization, cherry-pick (AID 651673); type: functional
[13] = target: T4, DNA repair and recombination protein RAD54-like (Homo sapiens, UniProt Q92698); experiment: inhibitors of human RAD54 branch migration, confirmation, biochemical, fluorescence, cherry-picked samples, dose series (AID 651657); type: functional
T4 sequence (Q92698 whole entry): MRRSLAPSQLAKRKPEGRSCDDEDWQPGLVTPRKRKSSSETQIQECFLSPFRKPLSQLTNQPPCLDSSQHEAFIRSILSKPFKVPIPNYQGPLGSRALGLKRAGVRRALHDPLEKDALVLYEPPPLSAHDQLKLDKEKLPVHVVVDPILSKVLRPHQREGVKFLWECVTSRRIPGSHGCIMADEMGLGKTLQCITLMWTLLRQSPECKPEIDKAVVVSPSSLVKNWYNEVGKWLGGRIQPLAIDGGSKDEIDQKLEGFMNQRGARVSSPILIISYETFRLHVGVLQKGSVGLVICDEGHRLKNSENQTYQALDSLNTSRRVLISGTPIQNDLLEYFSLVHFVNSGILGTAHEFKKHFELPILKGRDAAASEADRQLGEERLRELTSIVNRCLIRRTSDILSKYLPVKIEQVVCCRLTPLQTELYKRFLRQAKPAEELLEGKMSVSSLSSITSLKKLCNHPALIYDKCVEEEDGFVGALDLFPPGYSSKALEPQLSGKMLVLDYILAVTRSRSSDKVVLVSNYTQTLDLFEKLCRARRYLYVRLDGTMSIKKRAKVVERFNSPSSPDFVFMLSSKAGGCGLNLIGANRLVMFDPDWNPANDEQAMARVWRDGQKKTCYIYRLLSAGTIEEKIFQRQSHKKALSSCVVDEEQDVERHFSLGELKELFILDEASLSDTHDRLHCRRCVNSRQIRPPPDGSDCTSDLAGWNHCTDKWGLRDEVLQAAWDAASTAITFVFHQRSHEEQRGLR

[14] = target: SWI/SNF-related matrix-associated actin-dependent regulator of chromatin subfamily A member 2 (Homo sapiens, UniProt P51531); experiment: Luminescence-based cell-based high throughput dose response assay to identify activators of the function of SWI/SNF related, matrix associated, actin dependent regulator of chromatin, subfamily a, member 2 (SMARCA2, BRM).; type: functional
[15] = Counterscreen for activators of the function of SWI/SNF related, matrix associated, actin dependent regulator of chromatin, subfamily a, member 2 (SMARCA2, BRM): Luminescence-based cell-based high throughput dose response assay to identify non-selective compounds using the VP16 reporter assay.; type: functional
[16] = target: T5, DNA repair protein RAD52 homolog (Homo sapiens, UniProt P43351); type: functional, biochemical
T5 sequence (P43351 whole entry): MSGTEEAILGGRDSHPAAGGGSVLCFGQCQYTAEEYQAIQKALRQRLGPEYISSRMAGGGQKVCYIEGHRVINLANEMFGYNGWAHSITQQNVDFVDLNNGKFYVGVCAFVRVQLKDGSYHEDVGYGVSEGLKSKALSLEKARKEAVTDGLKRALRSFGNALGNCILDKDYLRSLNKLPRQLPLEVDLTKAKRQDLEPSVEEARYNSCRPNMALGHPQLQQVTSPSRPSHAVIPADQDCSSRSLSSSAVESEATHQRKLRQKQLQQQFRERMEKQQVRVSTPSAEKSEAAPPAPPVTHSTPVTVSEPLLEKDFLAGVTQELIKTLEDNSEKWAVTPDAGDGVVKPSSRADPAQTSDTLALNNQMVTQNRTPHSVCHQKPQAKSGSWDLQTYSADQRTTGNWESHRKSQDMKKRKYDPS

HEK293 [17] = experiment: cells; conditions: Homo sapiens
HEK293 [18] = experiment: cells; conditions: Homo sapiens; remark: listed apart in the source
[19] = Late stage assay provider results from the probe development effort to identify selective inhibitors of heat shock protein 90 (HSP90): Absorbance-based cell proliferation assay in SKBR3 cells.; type: functional; conditions: SK-BR-3
[20] = Late stage assay provider results from the probe development effort to identify selective inhibitors of heat shock protein 90 (HSP90): Absorbance-based cell proliferation assay in MCF7 cells.; type: functional
Major prion protein = Major prion protein (Homo sapiens, UniProt P04156); type: functional, cell-based
cells [21] = experiment: cells
Galanin receptor type 3 = Galanin receptor type 3 (Homo sapiens, UniProt O60755); experiment: Fluorescence-based cell-based primary high throughput dose response assay to identify antagonists of the Galanin Receptor 3 (GalR3).; type: functional
cells [22] = type: functional, cell-based; conditions: HEK-CNG
Caspase-6 = target: T6, Caspase-6 (Homo sapiens, UniProt P55212); experiment: human caspase-6 inhibitors, dose response, biochemical, VEID-R110 fluorescence, cherry-pick (AID 720632)
T6 sequence (P55212 whole entry): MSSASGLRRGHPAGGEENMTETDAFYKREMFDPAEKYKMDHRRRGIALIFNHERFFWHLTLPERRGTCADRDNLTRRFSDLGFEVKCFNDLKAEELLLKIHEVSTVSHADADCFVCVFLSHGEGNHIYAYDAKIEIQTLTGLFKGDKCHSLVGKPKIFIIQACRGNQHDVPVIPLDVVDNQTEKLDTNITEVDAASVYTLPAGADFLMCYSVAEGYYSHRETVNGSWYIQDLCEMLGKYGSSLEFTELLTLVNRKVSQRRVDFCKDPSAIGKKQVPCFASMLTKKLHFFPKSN

Caspase-7 = Caspase-7 (Homo sapiens, UniProt P55210); experiment: human caspase-7 inhibitors, dose response, selectivity assay for caspase-6 inhibitor project, biochemical, DEVD-R110 fluorescence, cherry-pick (AID 743295)

SMILES: O=C(/C=C\Nc1ccccc1Br)c1ccc2c(c1)OCO2
- IC50 (cells [1]): > 67.5 µM (inactive)
- IC50 [2]: > 0.0926 µM (active)

SMILES: Cc1ccc(N/C=C/C(=O)c2cccs2)cc1
- EC50 [3]: 9.4 µM (active)
- EC50 [4]: 9.77 µM (active)
- EC50 [5]: 1.17 µM (active)
- EC50 [6]: 6.06 µM (active)
- IC50 (Protein skinhead-1): 39 µM (active)
- IC50 (cells [1]): > 67.5 µM (inactive)
- IC50 [2]: > 0.278 µM (active)

SMILES: OCCCNc1c2ccccc2nc2ccccc12
- EC50 (cells [7]): > 350 µM (not active)
- EC50 [8]: 0.266 µM (active)
- EC50 (cells [9]): > 350 µM (not active)
- EC50 [10]: 7.34 µM (active)
- EC50 [11]: 6.68 µM (active)
- AC50 (INS1): 2.44 µM (active)
- AC50 [12]: 55.2 µM (active)
- AC50 [13]: 3.37 µM (active)
- EC50 [14]: > 3.38 µM (active)
- EC50 [15]: > 91.1 µM (inactive)
- AC50 [16]: 3.08 µM (active)
- EC50 (HEK293 [17]): > 2.21 µM (active)
- EC50 (HEK293 [18]): > 59.7 µM (inactive)

SMILES: O=C(NCc1ccco1)c1coc(=O)c(Br)c1
- IC50 [19]: 27.8 µM (inactive)
- IC50 [20]: 4.8 µM (active)

SMILES: COC(=O)CSc1nc(-c2ccccc2)nc2ccccc12
- IC50 (Major prion protein): 1.31 µM (active)
- IC50 (cells [21]): > 138 µM (inactive)

SMILES: CCOC(=O)c1c(O)nc(C)c(Cl)c1O
- IC50 (Galanin receptor type 3): > 29.9 µM (inactive)
- EC50 (cells [22]): > 29.9 µM (inactive)

SMILES: O=C(Nc1ccc(S(=O)(=O)Nc2cnc3ccccc3n2)cc1)c1ccc(Cl)c([N+](=O)[O-])c1
- AC50 (Caspase-6): 0.905 µM (active)
- AC50 (Caspase-7): > 70 µM (inactive)

SMILES: CC(=O)c1ccc(CCCCCCCCCC(=O)O)s1
- IC50 (Major prion protein): 5.71 µM (active)
- IC50 (cells [21]): > 138 µM (inactive)

SMILES: N#Cc1cc2cc(OCCc3ccc(F)cc3)ccc2oc1=O
- IC50 [19]: 16.9 µM (inactive)
- IC50 [20]: 96.5 µM (inactive)

Reference: ChEMBL document CHEMBL1201862, “PubChem BioAssay data set” (2004)
